Reference: US20250214999A1, “HETEROCYCLIC GLP-1 AGONISTS” (Gasherbrum Bio, Inc., priority 2020, published 2025)

Assays:
GLP-1 Receptor = GLP-1 Receptor (Homo sapiens (Human), UniProt P43220); test: GLP-1R agonist cAMP stimulation assay (HEK293/GLP1R/CRE-LUC cells); format: cell-based; conditions: 30 min incubation, read-out: GLP1R cAMP Stimulation DR: EC50
Experimental: Activation of GLP-1 receptor is known to stimulate cyclic AMP (cAMP) production in cells which indicates primary coupling to the Gαs subunit of the G protein heterotrimeric complex.
To optimize functional activity directed toward Gαs coupling, a HEK293/CRELuc cell line developed by HDB stably expressing the GLP-1 Receptor was used. 200× concentration of compound working solutions were prepared (Agilent Technologies Bravo) with 1/2 log serial dilution in 384-well Echo LDV plate (Labcyte, Cat #LP-0200). 50 nL/well 200× concentration of compound working solutions were moved to 384-well white low volume plate (Greiner, Cat #784075) using Labcyte ECHO550. 1×10^5 cells/mL HEK293/GLP1R/CRE-LUC (HD Biosciences) cell suspensions prepared with assay buffer [DPBS containing 0.5 mM IBMX (Sigma,Cat #I5879) and 0.1% BSA (GENVIEW, Cat #FA016-100 g)], 10 uL cell suspensions were added to each well of previous generated assay plate which already contains 50 nl compound at 200× concentration using ThermoFisher Multidrop Combi (1000cells/well). Seal the plate and incubate at 37° C. with 5% CO2 for 30 min.
After incubation the CAMP assay signal was generated using cAMP dynamic 2 Kit (Cisbio). 5 μL cAMP-d2 working solution was added to each well, followed with 5 μL Anti-cAMP antibody-cryptate working solution added to each well using ThermoFisher Multidrop Combi. Incubate at room temperature for 1 hour protected from light. Read the fluorescence at 665 and 615 nm with Reader PerkinElmer En Vision.

[1] = Nonhuman primate (NHP) pharmacokinetics (PK) study; format: in vivo, cynomolgus monkey; conditions: male NHP
Experimental: Pharmacokinetics (PK) study was conducted on male NHP (e.g. cynomolgus monkey) by two delivery routes intravenous (IV) and/or oral gavage (PO). NHP in IV route (n=3) were free access to food and water. NHP in PO route (n=3) were fasted overnight and fed at 4 hrs post dosing. Test article was formulated in solution for IV route and solution or suspension for PO route, respectively.
On the day of experiment, test article was administered via vein (e.g. cephalic vein) injection (commonly at 0.2 to 1 mg/kg and 1 to 2 mL/kg) for IV route or via oral gavage (commonly at 1 to 100 mg/kg and 2 to 10 mL/kg) for PO route, respectively.
Blood samples were collected via serial bleeding at ˜8 time points from 0.083 to 24 hours post dose. Approximate 500 μL of blood/time point was collected into EDTA-K2 tube via cephalic or saphenous vein. Blood samples were put on wet ice and centrifuged to obtain plasma samples and plasma samples were submitted to LCMS/MS for sample analysis.
Pharmacokinetics parameters, including maximum plasma concentration (Cmax), time to reach maximum plasma concentration (Tmax), area under the curve (AUC0-4) and oral bioavailability (F%), etc., were calculated by non-compartmental model using WinNonlin.
Exemplary compounds of Formula I (e.g., certain compounds of Formula IB (e.g., Formula IB-1)) were tested using the protocol above. Reference compound REF1 was tested as a control compound.

GLP-1 Receptor, sequence (P43220 24-463): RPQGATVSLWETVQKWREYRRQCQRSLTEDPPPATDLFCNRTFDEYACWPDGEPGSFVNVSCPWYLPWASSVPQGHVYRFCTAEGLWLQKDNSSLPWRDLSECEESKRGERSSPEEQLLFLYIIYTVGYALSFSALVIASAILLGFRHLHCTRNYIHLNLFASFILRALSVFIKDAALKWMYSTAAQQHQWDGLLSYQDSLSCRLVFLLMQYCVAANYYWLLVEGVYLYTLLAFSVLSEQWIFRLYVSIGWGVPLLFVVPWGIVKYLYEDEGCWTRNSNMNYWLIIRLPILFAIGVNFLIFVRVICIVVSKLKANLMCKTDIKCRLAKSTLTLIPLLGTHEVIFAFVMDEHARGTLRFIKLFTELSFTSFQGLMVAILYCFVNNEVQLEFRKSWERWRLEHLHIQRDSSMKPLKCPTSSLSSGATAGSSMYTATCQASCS

## O=C(O)c1ccc2nc(CN3CCC(c4cccc5c4OCC(c4ccc(C(F)(F)F)cc4)O5)CC3)n(C[C@@H]3CCO3)c2n1 (stereo partly drawn) [Compound 119a, 2-((4-(2-(4-(trifluoromethyl)phenyl)-2,3-dihydrobenzo[b][1,4]dioxin-5-yl)piperidin-1-yl)methyl)-3-(((S)-oxetan-2-yl)methyl)-3H-imidazo[4,5-b]pyridine-5-carboxylic acid]
GLP-1 Receptor
  EC50: ≤ 0.2 nM

## O=C(O)c1ccc2nc(CN3CCC(c4cccc5c4OC[C@@H](c4ccc(Cl)cc4F)O5)CC3)n(C[C@@H]3CCO3)c2c1 [Compound 120b, 2-((4-((R)-2-(4-chloro-2-fluorophenyl)-2,3-dihydrobenzo[b][1,4]dioxin-5-yl)piperidin-1-yl)methyl)-1-((S)-oxetan-2-ylmethyl)-1H-benzo[d]imidazole-6-carboxylic acid]
GLP-1 Receptor
  EC50: 0.2 to 20 nM

## O=C(O)c1ccc2nc(CN3CCC(c4cccc5c4OC[C@H](c4ccc(Cl)cc4F)O5)CC3)n(C[C@@H]3CCO3)c2c1 [Compound 120c, 2-((4-((S)-2-(4-chloro-2-fluorophenyl)-2,3-dihydrobenzo[b][1,4]dioxin-5-yl)piperidin-1-yl)methyl)-1-((S)-oxetan-2-ylmethyl)-1H-benzo[d]imidazole-6-carboxylic acid]
GLP-1 Receptor
  EC50: 20 to 200 nM

## O=C(O)c1ccc2nc(CN3CCN(c4cccc5c4OCC(c4ccc(Cl)cc4F)C5)CC3)n(C[C@@H]3CCO3)c2n1 (stereo partly drawn) [Compound 121a, 2-((4-(3-(4-Chloro-2-fluorophenyl)chroman-8-yl)piperazin-1-yl)methyl)-3-(((S)oxetan-2-yl)methyl)-3H-imidazo[4,5-b]pyridine-5-carboxylic acid]
GLP-1 Receptor
  EC50: 20 to 200 nM

## O=C(O)c1ccc2nc(CN3CCC(c4cccc5c4OCC(c4ccccc4F)C5)CC3)n(C[C@@H]3CCO3)c2n1 (stereo partly drawn) [Compound 122a, 2-((4-(3-(2-fluorophenyl) Chroman-8-yl)piperidin-1-yl)methyl)-3-(((S)-oxetan-2-yl)methyl)-3H-imidazo[4,5-b]pyridine-5-carboxylic acid]
GLP-1 Receptor
  EC50: 20 to 200 nM

## O=C(O)c1ccc2nc(CN3CCN(c4cccc5c4CCC(c4ccc(Cl)cc4F)O5)CC3)n(C[C@@H]3CCO3)c2n1 (stereo partly drawn) [Compound 123a, 2-((4-(2-(4-Chloro-2-fluorophenyl)chroman-5-yl)piperazin-1-yl)methyl)-3-((S)oxetan-2-ylmethyl)-3H-imidazo[4,5-b]pyridine-5-carboxylic acid]
GLP-1 Receptor
  EC50: 20 to 200 nM

## O=C(O)c1ccc2nc(CN3CCC(c4cccc5c4OCC(c4ccc(Cl)cc4F)N5)CC3)n(C[C@@H]3CCO3)c2n1 (stereo partly drawn) [Compound 124a, 2-((4-(3-(4-chloro-2-fluorophenyl)-3,4-dihydro-2H-benzo[b][1,4]oxazin-8-yl)piperidin-1-yl)methyl)-3-(((S)-oxetan-2-yl)methyl)-3H-imidazo[4,5-b]pyridine-5-carboxylic acid]
GLP-1 Receptor
  EC50: 0.2 to 20 nM

## O=C(O)c1ccc2nc(CN3CCC(c4cccc5c4OCC(c4ccccc4F)N5)CC3)n(C[C@@H]3CCO3)c2n1 (stereo partly drawn) [Compound 125a, 2-((4-(3-(2-fluorophenyl)-3,4-dihydro-2H-benzo[b][1,4]oxazin-8-yl)piperidin-1-yl)methyl)-3-(((S)-oxetan-2-yl)methyl)-3H-imidazo[4,5-b]pyridine-5-carboxylic acid]
GLP-1 Receptor
  EC50: 20 to 200 nM

## O=C(O)c1ccc2nc(CN3CCC(c4cccc5c4CCN(c4ccc(Cl)cc4)C5)CC3)n(C[C@@H]3CCO3)c2n1 [Compound 126a]
GLP-1 Receptor
  EC50: > 200 nM

## CC1(c2ccc(Cl)cc2F)COc2c(cccc2C2CCN(Cc3nc4ccc(C(=O)O)nc4n3C[C@@H]3CCO3)CC2)O1 (stereo partly drawn) [Compound 127a, 2-((4-(2-(4-chloro-2-fluorophenyl)-2-methyl-2,3-dihydrobenzo[b][1,4]dioxin-5-yl)piperidin-1-yl)methyl)-3-((S)-oxetan-2-ylmethyl)-3H-imidazo[4,5-b]pyridine-5-carboxylic acid]
GLP-1 Receptor
  EC50: 0.2 to 20 nM

## CC1(c2ccc(Cl)cc2)COc2c(cccc2C2CCN(Cc3nc4ccc(C(=O)O)nc4n3C[C@@H]3CCO3)CC2)O1 (stereo partly drawn) [Compound 128a, 2-((4-(2-(4-chlorophenyl)-2-methyl-2,3-dihydrobenzo[b][1,4]dioxin-5-yl)piperidin-1-yl)methyl)-3-((S)-oxetan-2-ylmethyl)-3H-imidazo[4,5-b]pyridine-5-carboxylic acid]
GLP-1 Receptor
  EC50: 0.2 to 20 nM

## N#Cc1ccc([C@@H]2COc3c(cccc3C3CCN(Cc4nc5ccc(C(=O)O)cc5n4C[C@@H]4CCO4)CC3)O2)cc1 [Compound 129a, 2-((4-((R)-2-(4-Cyanophenyl)-2,3-dihydrobenzo[b][1,4]dioxin-5-yl)piperidin-1-yl)methyl)-1-(((S)-oxetan-2-yl)methyl)-1H-benzo[d]imidazole-6-carboxylic acid]
GLP-1 Receptor
  EC50: ≤ 0.2 nM

## O=C(O)c1ccc2nc(CN3CCC(c4cccc5c4OC(c4ccc(Cl)cc4F)CO5)CC3)n(C[C@@H]3CCO3)c2n1 (stereo partly drawn) [Compound 130a, 2-((4-(3-(4-chloro-2-fluorophenyl)-2,3-dihydrobenzo[b][1,4]dioxin-5-yl)piperidin-1-yl)methyl)-3-(((S)-oxetan-2-yl)methyl)-3H-imidazo[4,5-b]pyridine-5-carboxylic acid]
GLP-1 Receptor
  EC50: ≤ 0.2 nM

## N#Cc1ccc(COc2cccc(C3CCN(Cc4nc5ccc(C(=O)O)cc5n4C[C@@H]4CCO4)CC3)n2)c(F)c1 [REF1]
[1]; cynomolgus monkey, plasma, 1 mg/kg, oral (PO), Dose 1
  Tmax: 5.33 h
[1]; cynomolgus monkey, plasma, oral bioavailability
  bioavailability: 3.14%
[1]; oral (PO), Dose 1
  AUC0-24 h: 362 arbitrary unit
  Cmax: 36.0 arbitrary unit
